The source made the active and inactive calls.
Key:
[1] = Trypanosoma cruzi growth suppression in host cells – NIH3T3 host cells, beta-gal luminescence, confirmation (AID 2044); type: functional, cell-based;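 further: intracellular parasites grown in NIH/3T3 mouse fibroblasts as host cells; luminescent beta-galactosidase reporter signal from transgenic T. cruzi replicating inside host cells; inhibitors lower the luminescence signal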
[2] = NIH3T3 cell viability loss – ATP luminescence, mouse fibroblasts, counter-screen, dose response (AID 2010); type: functional, cell-based;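 further: cells exposed to compound for about 90 hours before reading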
[3] = viability of uninfected HEp-2 cells – cell-based, HTS, cytotoxicity control for RSV inhibitor project, dose response (AID 2410); type: functional; details: human respiratory syncytial virus
[4] = biological target: T1, Rac GTPase-activating protein 1 (Homo sapiens, UniProt Q9H0H5); assay: blockers of MgcRacGAP-driven Rac1 GTP hydrolysis – biochemical, ADP Hunter fluorescence, primary and confirmatory, confirmation (AID 624330); type: functional
T1 sequence (Q9H0H5 whole entry): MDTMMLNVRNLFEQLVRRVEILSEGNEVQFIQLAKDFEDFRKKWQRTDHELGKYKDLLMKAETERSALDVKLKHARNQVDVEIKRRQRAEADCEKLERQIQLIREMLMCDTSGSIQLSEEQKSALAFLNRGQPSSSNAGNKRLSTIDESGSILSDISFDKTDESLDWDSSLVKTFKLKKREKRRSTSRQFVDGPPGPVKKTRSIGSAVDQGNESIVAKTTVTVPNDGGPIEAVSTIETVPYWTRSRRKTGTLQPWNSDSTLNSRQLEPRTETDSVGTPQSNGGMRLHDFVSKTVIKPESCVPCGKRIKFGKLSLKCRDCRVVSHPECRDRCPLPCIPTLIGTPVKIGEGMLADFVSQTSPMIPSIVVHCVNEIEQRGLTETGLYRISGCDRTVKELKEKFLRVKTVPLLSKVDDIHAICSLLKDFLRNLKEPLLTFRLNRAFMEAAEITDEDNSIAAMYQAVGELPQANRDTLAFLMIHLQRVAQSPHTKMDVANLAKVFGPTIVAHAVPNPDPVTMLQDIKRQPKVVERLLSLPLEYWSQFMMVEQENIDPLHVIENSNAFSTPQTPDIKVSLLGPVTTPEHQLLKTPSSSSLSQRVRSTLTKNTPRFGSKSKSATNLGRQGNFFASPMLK

[5] = biological target: Cytochrome P450 2C19 (Homo sapiens, UniProt P33261); assay: Cytochrome panel assay with activity outcomes. Panel member name: p450-cyp2c19 Compounds with AC50 equal or less than 10 uM are considered active; type: functional
Sequence of Cytochrome P450 2C19 (P33261 whole entry): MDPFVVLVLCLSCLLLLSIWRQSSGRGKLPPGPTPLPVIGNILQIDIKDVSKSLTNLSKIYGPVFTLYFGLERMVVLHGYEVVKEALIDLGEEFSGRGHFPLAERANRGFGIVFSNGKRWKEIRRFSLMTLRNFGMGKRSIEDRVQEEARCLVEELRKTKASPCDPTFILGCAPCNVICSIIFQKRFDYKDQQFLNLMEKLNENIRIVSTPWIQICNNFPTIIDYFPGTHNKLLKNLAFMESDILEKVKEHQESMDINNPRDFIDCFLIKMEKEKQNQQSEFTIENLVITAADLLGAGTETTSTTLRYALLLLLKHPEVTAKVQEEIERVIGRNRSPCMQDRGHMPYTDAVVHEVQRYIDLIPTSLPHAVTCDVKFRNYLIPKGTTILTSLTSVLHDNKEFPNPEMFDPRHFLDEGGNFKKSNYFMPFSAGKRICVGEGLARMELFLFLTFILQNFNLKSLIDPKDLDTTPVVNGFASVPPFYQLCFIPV

[6] = biological target: Cytochrome P450 3A4 (Homo sapiens, UniProt P08684);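 further: CYP3A4 tested as one member of a cytochrome P450 panel screen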
Sequence of Cytochrome P450 3A4 (P08684 whole entry): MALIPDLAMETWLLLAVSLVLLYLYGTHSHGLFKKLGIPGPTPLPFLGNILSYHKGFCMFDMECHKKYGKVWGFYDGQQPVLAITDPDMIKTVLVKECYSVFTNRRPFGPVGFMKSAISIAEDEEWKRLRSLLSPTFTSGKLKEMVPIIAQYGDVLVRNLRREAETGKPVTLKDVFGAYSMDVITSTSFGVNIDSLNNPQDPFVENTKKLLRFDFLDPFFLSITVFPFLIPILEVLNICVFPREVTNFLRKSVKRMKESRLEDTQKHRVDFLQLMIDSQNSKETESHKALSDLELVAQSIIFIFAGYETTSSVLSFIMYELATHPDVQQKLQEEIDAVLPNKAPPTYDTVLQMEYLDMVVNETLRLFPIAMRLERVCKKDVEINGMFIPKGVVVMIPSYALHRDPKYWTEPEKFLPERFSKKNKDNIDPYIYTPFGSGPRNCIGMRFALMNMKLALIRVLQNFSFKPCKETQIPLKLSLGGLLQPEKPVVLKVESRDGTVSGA

[7] = biological target: Cytochrome P450 2C9 (Homo sapiens, UniProt P11712)
Sequence of Cytochrome P450 2C9 (P11712 whole entry): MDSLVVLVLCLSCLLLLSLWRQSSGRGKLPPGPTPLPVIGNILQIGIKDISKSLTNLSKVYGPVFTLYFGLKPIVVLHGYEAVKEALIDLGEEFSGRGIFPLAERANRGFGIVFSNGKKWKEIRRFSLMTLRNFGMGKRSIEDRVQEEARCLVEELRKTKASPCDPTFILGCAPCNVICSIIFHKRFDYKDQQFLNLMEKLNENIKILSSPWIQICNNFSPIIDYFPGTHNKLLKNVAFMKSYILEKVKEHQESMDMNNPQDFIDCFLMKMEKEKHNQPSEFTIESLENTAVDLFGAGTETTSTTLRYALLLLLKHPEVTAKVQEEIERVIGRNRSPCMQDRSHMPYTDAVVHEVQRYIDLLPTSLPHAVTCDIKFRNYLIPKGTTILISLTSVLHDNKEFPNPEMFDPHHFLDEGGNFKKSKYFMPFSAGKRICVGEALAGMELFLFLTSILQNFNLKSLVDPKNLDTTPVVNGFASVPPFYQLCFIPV

Cc1ccc(CN2CCN(CC(=O)N=Nc3c(O)[nH]c4ccccc34)CC2)cc1
EC50 [1]: 1.08 µM (active) | EC50 [2]: > 60 µM (not active)

Cc1ccc(-c2csc(NCCc3nc4cc(Cl)c(Cl)cc4n3CCCO)n2)cc1
CC50 [3]: 28.9 µM (active)

COCC(C)n1c(C)cc(C(=O)COC(=O)c2c(C)nn(-c3ccccc3)c2C)c1C (stereo unspecified)
CC50 [3]: 29.2 µM (active)

Cc1nn2cc(-c3ccc(N)cc3)nc2s1
IC50 [4]: 110 µM (active)

COc1ccc(C(=O)CN2C(=O)NC(C)(c3ccccc3)C2=O)cc1OC (stereo unspecified)
AC50 ([5]; read-out: AC50): 39.8 µM (inconclusive) | AC50 [6]: 4.47 µM (inconclusive)

Nc1ncnc2c1ncn2[C@@H]1O[C@@H](C(=O)NC2CC2)[C@H](O)[C@@H]1O
AC50 [6]: 1 µM (inconclusive)

C/C(CCN1CCc2nc(-c3ccccc3)c(-c3ccccc3)cc2C1)=N\OC[C@@H](O)[C@@H]1O[C@@H]2OC(C)(C)O[C@@H]2[C@H]1O
AC50 [6]: 3.98 µM (inconclusive)

CNc1nc(-c2ccc3c(c2)CCN3C(=O)c2ccccc2C)cs1
CC50 [3]: 14.9 µM (active)

Cn1c(O)c(C(c2ccccn2)c2c(O)n(C)c(=S)n(C)c2=O)c(=O)n(C)c1=S
AC50 [7]: 1.58 µM (inconclusive)

O=C(COc1ccccc1)Nc1ccc2[nH]c(O)nc2c1
CC50 [3]: 26 µM (active)

COc1ccc(NC(S)=NC(=NCS(=O)(=O)c2ccccc2)c2ccccc2)cc1
CC50 [3]: 24.6 µM (active)

N=C(N)CCNC(=O)[C@@H]1CCC(N)=N1.O=S(=O)(O)O
AC50 [5]: inconclusive

O=C1[C@H]2[C@@H](c3ccc(F)cc3)N3C(=O)N(c4ccc(C(F)(F)F)cc4)C(=O)[C@@]3(Cc3ccccc3)[C@H]2C(=O)N1C1CCCCC1
CC50 [3]: > 50 µM (active)

O=C(NCc1ccco1)c1nc(O)c2nnn(Cc3cccc(Cl)c3)c2n1
AC50 [7]: 15.8 µM (inconclusive)

COc1ccccc1N1CCN(CC(=O)NCC2CCCO2)CC1 (stereo unspecified)
IC50 [4]: 51.9 µM (active)

Cc1[nH]nc(-c2ccc(OCc3cnn(-c4ccccc4)c3)cc2O)c1Oc1ccccc1F
AC50 [6]: 8.91 µM (inconclusive)

Oc1ccc(Br)cc1Cn1nnc2ccccc21
CC50 [3]: 30 µM (active)

COc1cc(CN2CCN(Cc3ccc(C(F)(F)F)cc3)CC2)cc(OC)c1OC
IC50 [4]: 122 µM (active)

O=C(NC1CCCC1)c1ccc([N+](=O)[O-])s1
EC50 [1]: 0.546 µM (active) | EC50 [2]: 5.25 µM (active)

COc1ccc(CCNCc2ccccc2)cc1
IC50 [4]: 134 µM (active)

COCCn1c(=O)c(-c2cccs2)nc2cnc(OC)nc21
AC50 ([5]; read-out: AC50): 20 µM (inconclusive) | AC50 [7]: 39.8 µM (inconclusive)

COc1cccc([C@@H]2Oc3ccc(OC)cc3/C(=N/O[C@@H](C)CN3CCCc4nc(C)c(C)cc43)[C@@H]2O)c1
AC50 ([5]; read-out: AC50): 0.251 µM (inconclusive) | AC50 [7]: 2 µM (inconclusive)

COc1ccc(NC(=O)c2nc[nH]n2)cc1
AC50 ([5]; read-out: AC50): 31.6 µM (inconclusive) | AC50 [7]: 0.708 µM (inconclusive)

OC1CNc2c(ccc3ccccc23)C1 (stereo unspecified)
IC50 [4]: 18.4 µM (active)

COc1ccccc1CNC(=O)C[C@@H]1C[C@H]2c3cc(N(C)C)ccc3O[C@H]2[C@H](CO)O1
IC50 [4]: 153 µM (active)

COc1cc(/C=N/N=C2/SCC(=O)N2c2ccc(O)cc2)ccc1O
IC50 [4]: 65 µM (active)

C/C(CC(=O)NC1CCCC1)=N\NC(=O)Cc1cccs1
AC50 [6]: 12.6 µM (inconclusive)

CCN1CCN(c2ccc(/N=C/c3ccc(O)cc3O)cc2)CC1
IC50 [4]: 28 µM (active)

O=C(CCC(=O)Nc1ccc(F)cc1)N/N=C/c1ccc(O)cc1
IC50 [4]: 62.8 µM (active)

Cc1ccc(S(=O)(=O)Nc2ccc(NC(=O)CN3CCCCC3)c(Cl)c2)cc1
CC50 [3]: 24.8 µM (active)
